The target of one test is T1, Heme-containing sGC (Rattus norvegicus, UniProt P20595).
T1 construct: made in house; host or cells: Sf9 insect cells (baculovirus)
The test is described as follows: Stimulation of recombinant soluble guanylate cyclase (sGC) in vitro, heme-containing enzyme. Format: biochemical. Conditions: for Stimulation (n-fold) Heme-containing sGC Basal: n-fold stimulation of basal activity. The method, then:
(§1) The investigations on the stimulation of recombinant soluble guanylate cyclase (sGC) and the compounds according to the invention with and without sodium nitroprusside and with and without the heme-dependent sGC inhibitor 1H-1,2,4-oxadiazole-(4,3a)-quinoxalin-1-one (ODQ) were carried out by the method described in detail in the following literature reference: M. Hoenicka, E. M. Becker, H. Apeler, T. Sirichoke, H. Schroeder, R. Gerzer and J.-P. Stasch: Purified soluble guanylyl cyclase expressed in a baculovirus/Sf9 system: stimulation by YC-1, nitric oxide, and carbon oxide. J. Mol. Med. 77 (1999): 14-23.
(§2) Activation of sGC by a test substance is stated as n-fold stimulation of basal activity.

Another test concerns arteria saphena. Nature of the test: Vasorelaxant action in vitro (phenylephrine-contracted arteria saphena rings). The class given is cell-based, Rabbits. Conditions: Oryctolagus cuniculus; rabbit arteria saphena rings, contraction induced by phenylephrine; concentration reducing contraction to 50%. The method, then: Rabbits are anesthetized by intravenous injection of thiopental sodium […] (about 50 mg/kg) and exsanguinated. The arteria saphena is removed and divided into 3 mm wide rings. The rings are individually mounted on in each case one triangular pair of hooks, open at the end, made of 0.3 mm strong special wire (Remanium®). Under a pretension, each ring is transferred into 5 ml organ baths containing a warm, carbogen-aerated Krebs-Henseleit solution at 37° C. having the following composition (mM): NaCl: 119; KCl: 4.8; CaCl2×2 H2O: 1; MgSO4×7 H2O: 1.4; KH2PO4: 1.2; NaHCO3: 25; glucose: 10; bovine serum albumin: 0.001%. The contractility is detected using Statham UC2 cells, amplified and digitalized by means of A/D converters (DAS-1802 HC, Keithley Instruments Munich), and recorded in parallel on linear recorders. Contractions are induced by addition of phenylephrine.
After several (in general 4) control cycles, the substance to be investigated is added in each further passage in increasing dosage, and the height of the contraction achieved under the influence of the test substance is compared with the height of the contraction achieved in the last preliminary passage. From this, the concentration which is necessary in order to reduce the contraction achieved in the preliminary control to 50% (IC50) is calculated. The standard administration volume is 5 μl. The proportion of DMSO in the bath solution corresponds to 0.1%.

The next test addresses T2, Heme-free sGC (Rattus norvegicus, UniProt P20595).
T2 construct: made in house; host or cells: Sf9 insect cells (baculovirus)
Nature of the test: Stimulation of recombinant soluble guanylate cyclase (sGC) in vitro, heme-free enzyme. The class given is biochemical. As to conditions: heme-free (Tween 20 0.5%). The method, then: as §1
Heme-free guanylate cyclase was obtained by adding Tween 20 to the sample buffer (final concentration 0.5%).
as §2

As a reminder, the IC50 is the concentration needed to halve the response being measured. Read a high IC50 as a need for much substance.

T1 sequence (P19686 whole entry partner): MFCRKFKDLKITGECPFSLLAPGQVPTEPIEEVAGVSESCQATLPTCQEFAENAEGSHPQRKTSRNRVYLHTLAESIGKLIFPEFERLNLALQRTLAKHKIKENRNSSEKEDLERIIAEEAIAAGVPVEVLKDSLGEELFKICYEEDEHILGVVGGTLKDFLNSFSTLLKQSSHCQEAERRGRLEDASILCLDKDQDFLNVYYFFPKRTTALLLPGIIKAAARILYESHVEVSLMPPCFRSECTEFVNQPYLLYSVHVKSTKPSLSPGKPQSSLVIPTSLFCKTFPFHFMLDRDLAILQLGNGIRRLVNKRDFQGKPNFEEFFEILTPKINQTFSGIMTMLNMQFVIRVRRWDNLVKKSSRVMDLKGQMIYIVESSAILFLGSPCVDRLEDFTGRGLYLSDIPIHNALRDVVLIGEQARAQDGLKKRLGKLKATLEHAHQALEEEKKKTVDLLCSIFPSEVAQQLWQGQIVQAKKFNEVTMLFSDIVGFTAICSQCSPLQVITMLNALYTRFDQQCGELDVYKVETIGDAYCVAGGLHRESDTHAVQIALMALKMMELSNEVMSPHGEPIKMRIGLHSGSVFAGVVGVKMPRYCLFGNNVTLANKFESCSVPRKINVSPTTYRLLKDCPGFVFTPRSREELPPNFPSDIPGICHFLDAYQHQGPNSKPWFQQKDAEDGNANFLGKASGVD
T1 sequence (P20595 whole entry): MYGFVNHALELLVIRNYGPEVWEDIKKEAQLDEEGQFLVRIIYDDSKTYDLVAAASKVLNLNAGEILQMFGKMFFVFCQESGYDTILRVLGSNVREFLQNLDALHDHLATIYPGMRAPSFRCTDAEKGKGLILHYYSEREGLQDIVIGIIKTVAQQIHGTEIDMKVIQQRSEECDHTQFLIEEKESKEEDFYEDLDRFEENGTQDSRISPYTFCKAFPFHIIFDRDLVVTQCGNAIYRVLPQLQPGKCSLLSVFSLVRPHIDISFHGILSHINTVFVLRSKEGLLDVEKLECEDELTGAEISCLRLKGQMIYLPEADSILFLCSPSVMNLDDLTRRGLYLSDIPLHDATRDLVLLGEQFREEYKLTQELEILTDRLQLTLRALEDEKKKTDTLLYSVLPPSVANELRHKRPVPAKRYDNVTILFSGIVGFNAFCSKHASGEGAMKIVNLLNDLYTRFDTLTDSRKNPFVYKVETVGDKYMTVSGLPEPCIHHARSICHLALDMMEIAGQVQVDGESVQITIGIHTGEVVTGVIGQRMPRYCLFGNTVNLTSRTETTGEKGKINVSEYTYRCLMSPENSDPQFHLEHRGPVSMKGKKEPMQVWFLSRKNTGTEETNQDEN
T2 sequence (P19686 whole entry partner): as the sequence (P19686 whole entry partner) above
T2 sequence (P20595 whole entry): as the sequence (P20595 whole entry) above

Turning to `O=C(O)CCCC[C@@H](CCc1ccccc1OCc1ccc(C2CCCCC2)cc1)Cc1ccc(C(=O)O)cc1` [Example 93], the “Stimulation (n-fold) Heme-containing sGC +ODQ (10 μM)” value turned out to be 84 n-fold on Heme-containing sGC (0.1 μM test compound), 151 n-fold at Heme-containing sGC (1.0 μM test compound) and 178 n-fold on Heme-containing sGC. Further, the results for the “Stimulation (n-fold) Heme-containing sGC +SNP (0.1 μM)” value on Heme-containing sGC (0.1 μM test compound), on Heme-containing sGC (1.0 μM test compound) and on Heme-containing sGC (10 μM test compound) were 45 n-fold, 44 n-fold and 54 n-fold, respectively. The entries for the “Stimulation (n-fold) Heme-containing sGC Basal” value at Heme-containing sGC (0.1 μM test compound), on Heme-containing sGC (1.0 μM test compound) and on Heme-containing sGC (10 μM test compound) were 17 n-fold, 23 n-fold and 33 n-fold, respectively. The IC50 in the test on arteria saphena turned out to be 0.2 nM. The “Stimulation (n-fold) Heme-free sGC +ODQ (10 μM)” value on Heme-free sGC (0.1 μM test compound) was 392 n-fold; at Heme-free sGC (1.0 μM test compound) it was 435 n-fold; at Heme-free sGC (10 μM test compound) it was 500 n-fold. In addition, the entries for the “Stimulation (n-fold) Heme-free sGC Basal” value on Heme-free sGC (0.1 μM test compound), at Heme-free sGC (1.0 μM test compound) and at Heme-free sGC (10 μM test compound) were 436 n-fold, 476 n-fold and 541 n-fold, respectively.

As for `O=C(O)CCCCC(/C=C/c1ccccc1OCc1cc2ccccc2s1)Cc1ccc(C(=O)O)cc1` (stereo not shown) [Example 78], 5.8 nM corresponded to half-maximal inhibition in the test with arteria saphena (IC50).

`O=C(O)CSCCC(/C=C/c1ccccc1OCCCCCc1ccccc1)Cc1ccc(C(=O)O)cc1` (stereo not shown) [Example 164] returned an IC50 in the test with arteria saphena of 580 nM. Against the preceding molecule, the IC50 is about 100-fold higher.

In the test with arteria saphena, `O=C(O)CCCCC(/C=C/c1ccccc1NCc1ccccc1)Cc1ccc(C(=O)O)cc1` (stereo not shown) [Example 30] came in with an IC50 of 3500 nM.

In the test on arteria saphena, `O=C(O)CCCCC(/C=C/c1ccccc1OCCCCCN1CCCC1)Cc1ccc(C(=O)O)cc1` (stereo not shown) [Example 116] displayed an IC50 of 190 nM.

As to `O=C(O)CCCCC(/C=C/c1ccccc1OCc1ccc(C2CCCCC2)cc1)Cc1ccc(C(=O)O)cc1` (stereo not shown) [Example 72], in the test on arteria saphena, the IC50 came out at 0.2 nM.

`CCCCCCCCOc1ccccc1/C=C/C(CCCCC(=O)O)Cc1ccc(C(=O)O)cc1` (stereo not shown) [Example 29] displayed an IC50 with arteria saphena of 2.5 nM.

In the test on arteria saphena, `O=C(O)CCCCC(/C=C/c1ccccc1OCc1ccc(-c2ccccc2)cc1)Cc1ccc(C(=O)O)cc1` (stereo not shown) [Example 26] displayed an IC50 of 1.9 nM.

In the test with arteria saphena, `Cc1cc(COc2ccccc2/C=C/C(CCCCC(=O)O)Cc2ccc(C(=O)O)cc2)nn1-c1cc(Cl)cc(Cl)c1` (stereo not shown) [Example 76] showed an IC50 of 5.2 nM.

In the case of `O=C(O)CCCCC(/C=C/c1ccccc1OCc1ccc(-c2csc(C(F)(F)F)n2)cc1)Cc1ccc(C(=O)O)cc1` (stereo not shown) [Example 81], the IC50 in the test on arteria saphena was determined as 3.9 nM. The IC50 values of the last two molecules are within 1.5-fold of each other.

Molecule `O=C(O)CCCCC(/C=C/c1cccnc1OCCCCCc1ccccc1)Cc1ccc(C(=O)O)cc1` (stereo not shown) [Example 34] displayed an IC50 in the test with arteria saphena of 170 nM.

`O=C(O)CCCCC(COCc1cccc(Oc2ccccc2F)c1)Cc1ccc(C(=O)O)cc1` (stereo not shown) [Example 132]: half-maximal inhibition with arteria saphena (IC50) was put at 220 nM. The IC50 values of the last two molecules are within 1.5-fold of each other.

As to `O=C(O)CCCCC(CNc1ccccc1OCCCCCc1ccccc1)Cc1ccc(C(=O)O)cc1` (stereo not shown) [Example 150], inhibition in the test on arteria saphena was half-maximal at 30 nM (IC50).
